The values below come from PubChem BioAssay AID977606 (Broad Institute, 2014).

Each structure is given as a SMILES string. Values joined by “and” are separate entries in the source; they are usually repeats but may differ in a detail not shown here. Equal entries are not always repeated. Active and inactive are the calls of the source. How the calls were made is not given here.

The assay concerns INS-1E Gaussia luciferase insulin secretion, no glucose, luminescence. Kind of assay: glucose-independent GLuc insulin release activation – cell-based, INS-1E, Gaussia luciferase, luminescence, cherry-pick, counter-screen for glucose-dependent insulin secretion activators, dose response (AID 977606).
Consider `CC(C)C[C@H](NC(=O)c1[nH]cnc1C(=O)N[C@@H](C)c1ccccc1)C(=O)OC(C)(C)C`, for which the AC40 was 20 µM.

Regarding `COc1ccc(-c2ccc(-c3noc(-c4ccco4)n3)c(OC)n2)cc1`, the AC40 was 5.41 µM. Under `COc1ccc(C)c2sc(N(CCCN(C)C)C(=O)c3ccc(S(=O)(=O)N4CCc5ccccc5C4)cc3)nc12` stands 3.62 µM; under `O=C(N/N=C/c1ccc(O)cc1O)NC12CC3CC(CC(C3)C1)C2`, 13.3 µM; under `COc1ccc(C2=NN(C(C)=O)C(c3cccs3)C2)cc1OC` (configuration not stated), > 35 µM (inactive). Under `NC(c1csc(NC(=O)Nc2cccc(C(F)(F)F)c2)n1)C1CCCCC1` (configuration not stated) stands 6.68 µM.

As to `COC(=O)c1cnn(-c2nc(-c3ccccc3)cs2)c1N`, the AC40 was 20.4 µM. In the case of `O=C(N/N=C/c1ccco1)c1cc(-c2ccc3ccccc3c2)n[nH]1` it was 3.97 µM; in that of `COc1cc2sc3ccc(C#Cc4ccc(N)cc4)cc3c(=O)c2cc1OC`, 19 µM. Under `CCCCc1ccc(NC(=O)COc2ccc(C(=O)Nc3ccccc3OCC)cc2)cc1` stands 1.3 µM; under `CCCCCCN1C[C@H](n2cc(C3CC3)nn2)[C@@H](O)C[C@@H]1c1ccc(C)cc1`, 5.22 µM; under `COc1cc2ccccc2cc1C(=O)Nc1ccc2oc(=O)ccc2c1`, 9.12 µM. In the case of `CCOC(=O)c1cnc2c(Cl)c(Cl)ccc2c1NCCN1CCOCC1` it was 26.5 µM.

Turning to `Cc1ccc(NC(=O)c2cc(-c3ccccc3O)n[nH]2)cc1C`, the AC40 was > 35 µM (inactive). Regarding `Fc1cccc(CN2C[C@@H]3N[C@H](C2)[C@@H]3c2ccc(-c3cccc(F)c3)cc2)c1`, the AC40 was 4.89 µM. In the case of `N#Cc1ccc(-c2ccc([C@@H]3[C@H]4CNC[C@@H]3N4Cc3cc(F)ccc3F)cc2)cc1` it was 12.8 µM; in that of `COc1ccc(-n2sc3ccccc3c2=O)cc1`, 0.759 µM; in that of `CC1CN(Cc2ccccc2)C(=S)NC1=O` (configuration not stated), 28.6 µM.

Consider `Cc1ccc(S(=O)(=O)C=CS(=O)(=O)c2ccc(C)cc2)cc1`, for which the AC40 was 0.228 µM. In the case of `NS(=O)(=O)c1ccc(NC(=O)COC(=O)c2cn(-c3ccccc3)nc2-c2ccc(F)cc2)cc1` it was 4.09 µM; in that of `O=C(Nc1nnc(-c2ccc(F)cc2)s1)C1CCN(S(=O)(=O)c2ccc(Cl)cc2)CC1`, 5.13 µM. In the case of `CCC(=O)Nc1ccc(Cl)c(NC(=S)NC(=O)COc2ccc(Cl)cc2)c1` it was 5.38 µM; in that of `Cc1ccc(NC(=O)c2oc3ccc(S(=O)(=O)N4CCOCC4)cc3c2C)cc1C`, 7.57 µM. In the case of `O=C(Nc1cccc(Cl)c1)Nc1nc(-c2ccc(Cl)cc2)cs1` it was > 35 µM (inactive); in that of `CC(=O)Nc1sc(N/N=C\c2cccc(Cl)c2)nc1-c1cccs1`, 4.69 µM; in that of `Cc1nc2c(=O)n(C)c(=O)n(C)c2nc1Cl`, 23.6 µM. As for `Cc1ccc(C)c(C(=O)Nc2nc3ccccc3[nH]2)c1`, the AC40 is 4.67 µM. Under `Cc1ccccc1S(=O)(=O)N1CC(=O)N2[C@@H](CO)[C@H](c3ccc(C#CCC4CCCC4)cc3)[C@@H]2C1` stands 22.6 µM. Under `CCOc1ccc2nc(NCCNC(=O)Nc3ccccc3)c(C#N)cc2c1` stands 8.22 µM; under `Cc1ccc2oc(-c3ccc(NC(=O)c4ccc5c(c4)OCO5)cc3)nc2c1`, 1.1 µM. Under `NC(N)=N/N=C/c1ccc(N(c2ccccc2)c2ccccc2)cc1` stands 4.06 µM. On to `Cc1ccccc1Cn1ccc(NC(=O)c2cc3nc(-c4ccco4)cc(C(F)(F)F)n3n2)n1`, for which the AC40 is 7.7 µM. Take `OC1(C#Cc2c(-c3ccsc3)sc3ccccc23)CCCCC1`: the AC40 is 13.3 µM. Regarding `CC(C)(C)S(=O)N1Cc2cc(C(=O)Nc3ccc(-c4ccccc4)cc3)nc(-c3cccc(-c4cccc(F)c4)c3)c2[C@@H]1CCO` (some centres not stated), the AC40 is 13.4 µM. Under `O=C(Nc1ccc(Cl)c(Cl)c1)Nc1nc(-c2ccccc2)cs1` stands 4.07 µM; under `Cc1ccc(C(=O)Oc2ccc(-c3nccc(-c4ccccn4)n3)cc2)cc1`, 5.1 µM; under `Cc1ccc2nc(-c3ccc(NC(=O)COC(=O)c4ccco4)cc3)sc2c1`, 3.8 µM. Under `CCOc1ccccc1CNC(c1ccccc1)c1ccccc1` stands 2.21 µM. Under `CN(C)Cc1ccccc1Sc1ccc2c(c1)CCCC2` stands 13 µM; under `O=C(NCc1ccccn1)c1coc(=O)c(Br)c1`, 1.59 µM; under `O=C(c1ccc(F)cc1)N1C[C@@H]2N[C@H](C1)C2c1ccc(/C=C/c2ccccc2)cc1` (some centres not stated), > 11 µM (inactive). As for `CC(C)CC#Cc1ccc2c(c1)O[C@@H](CN(C)Cc1cccc(F)c1)[C@H](C)CN([C@@H](C)CO)S2(=O)=O`, the AC40 is 12.7 µM.

As to `COc1cc(NC(=O)c2cccc(C)c2)ccc1NC(=O)c1cc2ccccc2o1`, the AC40 is 2.21 µM.

As to `COc1ccc(Br)cc1C(=O)Nc1cccc(C)c1`, the AC40 was 9.88 µM. Regarding `Fc1ccc(-c2ccc(C3[C@@H]4CN(Cc5cccc(F)c5)C[C@H]3N4)cc2)cc1` (some centres not stated), the AC40 was 5.18 µM.

As for `Cc1ccc(CC2(OCCN(C)C)CCC(C(C)(C)C)CC2)cc1` (configuration not stated), the AC40 was 5.45 µM.

Regarding `Cc1cccc(-n2c(C)c(C)c3c(N)ncnc32)c1`, the AC40 was > 35 µM (inactive).

On to `CC(C)C[C@H](NC(=O)c1nc[nH]c1C(=O)NC1CCN(C(=O)OC(C)(C)C)CC1)C(=O)OC(C)(C)C`, for which the AC40 is 26.4 µM. With `CN(C)c1ncnc2sc(-c3ccccc3)cc12`, the AC40 is 30.3 µM. In the case of `COc1cc(CN2C[C@@H]3N[C@H](C2)C3c2ccc(/C=C/c3ccccc3)cc2)cc(OC)c1` (some centres not stated) it was 1.76 µM; in that of `O=C(Nc1cccnc1)/C(N=Nc1cccnc1)=C(\O)c1ccccc1`, > 35 µM (inactive).

Regarding `CC(=O)N(C1CC(C)C(C#N)(C#N)C1(C#N)C#N)N(C)C` (configuration not stated), the AC40 is 0.795 µM.

For `Cc1cc(OCC(O)CNC(C)c2ccccc2)ccc1C(C)C` (configuration not stated), the AC40 was 9.73 µM.

Regarding `CN(Cc1c(C(=O)N/N=C/c2ccccc2O)nnn1-c1nonc1N)C1CCCCC1`, the AC40 was 5.83 µM. Under `CCOC(=O)c1c(NC(=O)c2ccoc2C)sc(C(=O)N(C)C)c1C` stands > 35 µM (inactive); under `O=c1c2ccc(F)cc2sn1-c1ccccc1`, 1.45 µM.

`Cc1ccc(Oc2ncc(-c3ccc(Cl)cc3)cn2)cc1`: the AC40 was 4.48 µM. Regarding `Cc1ccc(C)c(OCC(=O)Nc2nonc2NC(=O)COc2cc(C)ccc2C)c1`, the AC40 was 3.38 µM. In the case of `CC(C)CC(NC(=O)c1ccc(Cl)cc1)C(=O)OCC(=O)c1ccc2c(c1)NC(=O)CO2` (configuration not stated), the AC40 was 2.04 µM. With `COc1ccc(-c2cc3ccccc3oc2=O)cc1NC(=S)NC(=O)c1ccc2c(c1)OCCO2`, the AC40 is 1.2 µM. In the case of `COc1ccc(C(CCNCc2ccc(OC(C)C)cc2)C(C)C)cc1` (configuration not stated) it was 12.3 µM; in that of `COc1ccc(NC(=O)Cn2cnc3c(cnn3-c3ccc(C)c(C)c3)c2=O)c(OC)c1`, 3.41 µM; in that of `C=CCn1c(=NC(=O)c2cc(Cl)sc2Cl)sc2cc(S(N)(=O)=O)ccc21`, 4.47 µM. In the case of `OC[C@@H]1[C@@H](c2ccc(C#CC3CCCC3)cc2)[C@@H]2CN(CCC(F)(F)F)CCCCN12` it was 8.18 µM; in that of `Fc1ccc(-c2ccc(C3[C@@H]4CN(Cc5ccccc5)C[C@H]3N4)cc2)cc1` (some centres not stated), 8.97 µM. Under `CC(C)CC#Cc1ccc2c(c1)O[C@@H](CN(C)Cc1ccccc1)[C@H](C)CN([C@H](C)CO)S2(=O)=O` stands 8.93 µM. Take `O=C(NN=Cc1ccccc1Cl)c1cccc2ccccc12`: the AC40 was 7.18 µM.

With `COc1cc(CNCCc2ccccc2)cc(Cl)c1OCc1ccccc1`, the AC40 is 7.96 µM. Under `COc1cccc(-c2sc3ccccc3c2-c2ccc(OCCN(C)C)cc2)c1` stands 2.75 µM; under `O=C(N/N=C/c1ccc(Cl)cc1Cl)Nc1ccccc1`, 7.4 µM. In the case of `CN1CCN(CC(O)COC(c2ccc(Cl)cc2)c2ccc(Cl)cc2)CC1` (configuration not stated), the AC40 was 13.3 µM. Take `Cc1cccc(-c2ccc(C3[C@@H]4CN(C(=O)Nc5ccc(C(F)(F)F)cc5)C[C@H]3N4)cc2)c1` (some centres not stated): the AC40 was 1.7 µM. Under `O=C(OCC12CC3CC(CC(C3)C1)C2)c1ccc(NCc2cc(O)ccc2O)cc1` stands 9.2 µM. In the case of `CN(Cc1ccccc1)C(=S)NC(=O)c1ccc(-c2ccccc2)cc1`, the AC40 is 24 µM. Under `O=C(c1cccs1)c1coc2ccc(O)c(CN3CCOCC3)c12` stands > 35 µM (inactive); under `O=C(Nc1ccc(C(F)(F)F)cc1)N1C[C@@H]2N[C@H](C1)C2c1ccc(-c2ccccc2)cc1` (some centres not stated), 8.46 µM; under `CCOc1cccc(-c2csc(C3COc4ccccc4O3)n2)c1` (configuration not stated), 5.47 µM.

As for `CC(C)CC#Cc1ccc2c(c1)O[C@H](CN(C)C(=O)C1CCCCC1)[C@@H](C)CN([C@@H](C)CO)S2(=O)=O`, the AC40 is 15.8 µM. `COc1ccc(S(=O)(=O)N2CCc3ccccc3C2)cc1OC`: the AC40 was > 35 µM (inactive). Under `OC(CNCCc1ccc(C(F)(F)F)cc1)COC(c1ccccc1)c1ccccc1` (configuration not stated) stands 4.72 µM.

With `CCCCc1c(-c2ccccc2OC)ncn1C(C)c1ccc(Cl)cc1` (configuration not stated), the AC40 was 7.72 µM.

Take `CC(=O)N(/N=C/c1cccc(C)c1)c1nc(-c2ccc(Br)cc2)cs1`: the AC40 was 2.15 µM. In the case of `COc1ccc(CNCC(O)COc2ccc(C(C)(C)c3ccccc3)cc2)cc1` (configuration not stated) it was 6.24 µM. As to `Fc1ccc(/C=N/c2c(-c3ccc(F)cc3)nc3n2CCS3)cc1`, the AC40 was 6.12 µM. In the case of `COCCOc1ccc(C(F)(F)F)cc1NC(=O)c1ccccc1F` it was 7.89 µM; in that of `Cc1cccc(C(C)C)c1NC(=O)COC(=O)c1cccc(S(=O)(=O)N2CCc3ccccc3C2)c1`, 6.65 µM; in that of `CCOC(=O)c1c(C)n(-c2ccc(C)cc2)c2ccc(OCC(O)CN3CCN(C)CC3)cc12` (configuration not stated), 17.2 µM. Under `C=CCNc1nc(Cl)nc(Nc2ccc(OC)cc2)n1` stands 11.3 µM; under `CCCNC(=O)c1nnsc1S(=O)(=O)c1ccc(Cl)cc1`, 1.15 µM. Under `OC(CNCCC1C=Nc2ccccc21)Cn1c2ccc(Cl)cc2c2cc(Cl)ccc21` (configuration not stated) stands 9.56 µM; under `Cc1ccc2oc(-c3cccc(NC(=O)Cc4cccs4)c3)nc2c1`, 2.42 µM; under `Cc1cccc(-c2ccc(C3[C@@H]4CN(Cc5cccc(F)c5)C[C@H]3N4)cc2)c1` (some centres not stated), 4.33 µM and 2.3 µM.
